Reference: PubChem BioAssay (NCI)
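Exposure lasted 48 hours, with cells grown in 96-well plates and compounds tested at five concentrations. TGI denotes the concentration required for complete inhibition of growth.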

How the values were obtained:
Test in all cases: NCI anticancer screen, dose series, 48 h
[1] = tested on: NCI-H23 lung
[2] = tested on: HOP-92 NSCLC
[3] = tested on: OVCAR-8 ovarian
[4] = tested on: NCI/ADR-RES ovarian
[5] = tested on: TK-10 renal
[6] = tested on: HL-60(TB) leukemia
[7] = tested on: HCT-15 colon
[8] = tested on: NCI-H226 lung
[9] = tested on: BT-549 breast
[10] = tested on: SK-OV-3 ovarian
[11] = tested on: SNB-75 CNS
[12] = tested on: K-562 leukemia
[13] = tested on: RXF 393 renal
[14] = tested on: 786-0 renal
[15] = tested on: HT29 colon
[16] = tested on: IGROV1 ovarian
[17] = tested on: UACC-257 melanoma
[18] = tested on: HCT-116 colon
[19] = tested on: T-47D breast
[20] = tested on: MOLT-4 leukemia
[21] = tested on: HCC-2998 colon
[22] = tested on: SK-MEL-5 melanoma
[23] = tested on: SN12C renal
[24] = tested on: SF-268 CNS
[25] = tested on: OVCAR-5 ovarian
[26] = tested on: U251 CNS
[27] = tested on: MALME-3M melanoma
[28] = tested on: A549 NSCLC
[29] = tested on: SNB-19 CNS
[30] = tested on: MCF7 breast
[31] = tested on: NCI-H460 lung
[32] = tested on: HOP-62 NSCLC
[33] = tested on: LOX IMVI melanoma
[34] = tested on: COLO 205 colon
[35] = tested on: MDA-MB-435
[36] = tested on: OVCAR-4 ovarian
[37] = tested on: MDA-N
[38] = tested on: KM12 colon
[39] = tested on: CCRF-CEM leukemia
[40] = tested on: PC-3 prostate
[41] = tested on: ACHN renal
[42] = tested on: SW-620 colon
[43] = tested on: SK-MEL-2 melanoma
[44] = tested on: UACC-62 melanoma
[45] = tested on: M14 melanoma
[46] = tested on: SF-295 CNS
[47] = tested on: A498 renal
[48] = tested on: MDA-MB-231 breast
[49] = tested on: UO-31 renal
[50] = tested on: HS 578T breast
[51] = tested on: OVCAR-3 ovarian
[52] = tested on: SF-539 CNS
[53] = tested on: RPMI-8226 leukemia
[54] = tested on: CAKI-1 renal
[55] = tested on: DU-145 prostate
[56] = tested on: SK-MEL-28 melanoma
[57] = tested on: EKVX NSCLC
[58] = tested on: NCI-H522 lung
[59] = tested on: SR leukemia

Cc1nc2c(=O)n(-c3ccccc3)c3ccccc3c2o1
TGI [1]: > 100 µM | TGI [2]: > 100 µM | TGI [3]: > 100 µM | TGI [4]: > 100 µM | TGI [5]: > 100 µM | TGI [6]: > 100 µM | TGI [7]: > 100 µM | TGI [8]: > 100 µM | TGI [9]: > 100 µM | TGI [10]: > 100 µM | TGI [11]: > 100 µM | TGI [12]: > 100 µM | TGI [13]: > 100 µM | TGI [14]: > 100 µM | TGI [15]: > 100 µM | TGI [16]: > 100 µM | TGI [17]: > 100 µM | TGI [18]: > 100 µM | TGI [19]: > 100 µM | TGI [20]: > 100 µM | TGI [21]: > 100 µM | TGI [22]: > 100 µM | TGI [23]: > 100 µM | TGI [24]: > 100 µM | TGI [25]: > 100 µM | TGI [26]: > 100 µM | TGI [27]: > 100 µM | TGI [28]: > 100 µM | TGI [29]: > 100 µM | TGI [30]: > 100 µM | TGI [31]: > 100 µM | TGI [32]: > 100 µM | TGI [33]: > 100 µM | TGI [34]: > 100 µM | TGI [35]: > 100 µM | TGI [36]: > 100 µM | TGI [37]: > 100 µM | TGI [38]: > 100 µM | TGI [39]: > 100 µM | TGI [40]: > 100 µM | TGI [41]: > 100 µM | TGI [42]: > 100 µM | TGI [43]: > 100 µM | TGI [44]: > 100 µM | TGI [45]: > 100 µM | TGI [46]: > 100 µM | TGI [47]: > 100 µM | TGI [48]: > 100 µM | TGI [49]: > 100 µM | TGI [50]: > 100 µM | TGI [51]: > 100 µM | TGI [52]: > 100 µM | TGI [53]: > 100 µM | TGI [54]: > 100 µM | TGI [55]: > 100 µM | TGI [56]: > 100 µM | TGI [57]: > 100 µM

COc1cc(OC)c(/C=C\c2cc(/C=C/c3c(OC)cc(OC)cc3OC)c3ccccc3[n+]2C)c(OC)c1
TGI [1]: 9.25 µM | TGI [2]: 8.08 µM | TGI [3]: 5.34 µM | TGI [4]: > 100 µM | TGI [58]: 7.58 µM | TGI [5]: > 49 µM | TGI [6]: 5.62 µM | TGI [7]: > 47.4 µM | TGI [8]: 23.6 µM | TGI [9]: > 24.7 µM | TGI [10]: > 48 µM | TGI [11]: 14.2 µM | TGI [13]: 10.9 µM | TGI [14]: 7.56 µM | TGI [15]: 5.93 µM | TGI [16]: 38.3 µM | TGI [17]: 12.4 µM | TGI [18]: > 28.3 µM | TGI [19]: 7.11 µM | TGI [20]: 5.48 µM | TGI [21]: 14.5 µM | TGI [22]: 2 µM | TGI [23]: 9.8 µM | TGI [24]: 10.5 µM | TGI [25]: 57 µM | TGI [26]: > 61.4 µM | TGI [27]: 4.52 µM | TGI [28]: > 41.7 µM | TGI [29]: 40 µM | TGI [30]: > 39.8 µM | TGI [31]: 8.92 µM | TGI [32]: 16.3 µM | TGI [33]: 18.3 µM | TGI [34]: 6.1 µM | TGI [35]: 6.43 µM | TGI [36]: 36.4 µM | TGI [37]: 8.19 µM | TGI [38]: 10.4 µM | TGI [40]: 11.5 µM | TGI [41]: 25.8 µM | TGI [42]: > 36.3 µM | TGI [44]: 16.5 µM | TGI [45]: 12.7 µM | TGI [46]: 10.9 µM | TGI [47]: 14 µM | TGI [48]: 10.2 µM | TGI [49]: > 55.4 µM | TGI [50]: 97.9 µM | TGI [51]: 6.17 µM | TGI [52]: 5.93 µM | TGI [55]: 20.9 µM | TGI [56]: 10.9 µM | TGI [57]: 11.4 µM

C[C@]12CC/C(=N\O)C=C1CC[C@@H]1[C@@H]2CC[C@]2(C)C(=N/O)/C(=C/c3ccc([N+](=O)[O-])cc3)C[C@@H]12
TGI [1]: 75.2 µM | TGI [2]: 22.1 µM | TGI [4]: > 100 µM | TGI [58]: 9.64 µM | TGI [5]: 91 µM | TGI [6]: 8.91 µM | TGI [7]: > 100 µM | TGI [8]: > 100 µM | TGI [9]: 14.3 µM | TGI [10]: > 100 µM | TGI [11]: 26.9 µM | TGI [12]: 19.5 µM | TGI [13]: > 100 µM | TGI [14]: 27.7 µM | TGI [15]: 21.9 µM | TGI [16]: 12.5 µM | TGI [17]: 33.9 µM | TGI [18]: 14.2 µM | TGI [19]: 3.69 µM | TGI [20]: 9.55 µM | TGI [22]: 16.2 µM | TGI [23]: 30.7 µM | TGI [24]: > 100 µM | TGI [59]: 9.26 µM | TGI [27]: 71 µM | TGI [28]: > 100 µM | TGI [29]: > 100 µM | TGI [30]: > 100 µM | TGI [31]: > 100 µM | TGI [32]: > 100 µM | TGI [33]: 19.3 µM | TGI [34]: 53.3 µM | TGI [35]: 19 µM | TGI [36]: 44.4 µM | TGI [37]: 85 µM | TGI [38]: 23.6 µM | TGI [39]: 16 µM | TGI [40]: 34.5 µM | TGI [41]: > 100 µM | TGI [42]: > 100 µM | TGI [43]: 17.1 µM | TGI [44]: 14.6 µM | TGI [45]: 16 µM | TGI [46]: 8.96 µM | TGI [47]: 45.4 µM | TGI [48]: 29.6 µM | TGI [49]: 20.4 µM | TGI [50]: 18.3 µM | TGI [51]: 8.1 µM | TGI [52]: > 100 µM | TGI [53]: 7.61 µM | TGI [54]: 6.41 µM | TGI [55]: 28.8 µM | TGI [56]: > 100 µM

CC(=O)Oc1ccccc1/C=C/C(=O)/C=C/c1ccccc1OC(C)=O
TGI [1]: 4.61 µM | TGI [2]: 10.7 µM | TGI [3]: 5.12 µM | TGI [4]: 7.39 µM | TGI [58]: 4.69 µM | TGI [5]: 10.6 µM | TGI [7]: 9.34 µM | TGI [8]: 3.89 µM | TGI [9]: 3.97 µM | TGI [10]: 13.6 µM | TGI [11]: 5.95 µM | TGI [12]: 4.53 µM | TGI [13]: 1.65 µM | TGI [14]: 3.71 µM | TGI [15]: 4.25 µM | TGI [16]: 4.52 µM | TGI [17]: 2.96 µM | TGI [18]: 0.973 µM | TGI [19]: 34.9 µM | TGI [20]: 5.71 µM | TGI [21]: 4.18 µM | TGI [22]: 3.45 µM | TGI [23]: 4.07 µM | TGI [24]: 8.17 µM | TGI [25]: 4.35 µM | TGI [26]: 3.18 µM | TGI [27]: 6.11 µM | TGI [28]: 6.37 µM | TGI [29]: 6.53 µM | TGI [30]: 4.99 µM | TGI [31]: 6.48 µM | TGI [32]: 5.32 µM | TGI [33]: 2.01 µM | TGI [34]: 4.06 µM | TGI [35]: 5.37 µM | TGI [36]: 10.2 µM | TGI [37]: 6.67 µM | TGI [38]: 3.06 µM | TGI [39]: 12.6 µM | TGI [40]: 5.04 µM | TGI [41]: 3.62 µM | TGI [42]: 2.32 µM | TGI [43]: 21.1 µM | TGI [44]: 3.48 µM | TGI [45]: 4.45 µM | TGI [46]: 6.11 µM | TGI [47]: 4.01 µM | TGI [48]: 6.08 µM | TGI [49]: 3.48 µM | TGI [50]: > 51.9 µM | TGI [51]: 4.23 µM | TGI [52]: 3.33 µM | TGI [53]: 1.84 µM | TGI [54]: 10.4 µM | TGI [55]: 9.59 µM | TGI [56]: 4.09 µM | TGI [57]: 9.9 µM
